Measured values taken from patent publication US11319315B2, “Cyclohexyl acid triazole azoles as LPA antagonists” (BRISTOL-MYERS SQUIBB COMPANY, priority 2017, dated 2022).
Structures can show the parent of a compound that is named as a salt.

molecular target: T1, human LPA1 (Homo sapiens, UniProt Q92633); assay: LPA1 functional antagonist assay (LPA-induced calcium flux in CHO cells overexpressing human LPA1); type: cell-based; settings: inhibition of calcium flux induced by 10 nM LPA, CHO cells overexpressing human LPA1; read-out: hLPA1 IC50
T1 construct: expressed in transfected cells; host or cells: Chinese hamster ovary (CHO) cells
T1 sequence (Q92633 whole entry): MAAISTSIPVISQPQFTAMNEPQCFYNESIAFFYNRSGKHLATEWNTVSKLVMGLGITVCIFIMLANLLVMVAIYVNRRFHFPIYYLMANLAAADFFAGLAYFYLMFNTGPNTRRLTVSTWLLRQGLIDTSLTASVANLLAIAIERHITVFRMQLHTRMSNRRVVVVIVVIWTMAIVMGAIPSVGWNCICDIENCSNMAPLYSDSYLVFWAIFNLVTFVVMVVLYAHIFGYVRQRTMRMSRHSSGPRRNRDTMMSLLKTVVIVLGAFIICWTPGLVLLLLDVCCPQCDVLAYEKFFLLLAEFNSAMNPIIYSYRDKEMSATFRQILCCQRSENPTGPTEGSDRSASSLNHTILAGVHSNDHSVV
Method in brief: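 Calcium flux was triggered by 10 nM LPA after 20 min room-temperature compound pre-incubation (final 0.08 nM to 5 μM, 0.5% DMSO) in human LPA1-overexpressing CHO cells carrying calcium dye. Buffer: HBSS with Ca/Mg, 20 mM HEPES, 0.1% fatty-acid-free BSA; IC50s from 4-parameter logistic fits.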

Compared with CSc1nnnn1Cc1c(-c2ccc(O[C@H]3CCC[C@H](C(=O)O)C3)c(C)n2)nnn1C [Example 352, (1S,3S)-3-{[2-methyl-6-(1-methyl-5-{[5-(methylsulfanyl)-1H-1,2,3,4-tetrazol-1-yl]methyl}-1H-1,2,3-triazol-4-yl)pyridin-3-yl]oxy}cyclohexane-1-carboxylic acid], CCCc1cn(Cc2c(-c3ccc(O[C@H]4CCC[C@H](C(=O)O)C4)c(C)n3)nnn2C)nn1 [Example 86] is 3.1-fold lower in IC50: 580 nM for the first, 187 nM for the second. The second is the more potent here.

Going from Cc1nc(-c2nnn(C)c2Cc2noc(CCC3CC3)n2)ccc1O[C@H]1CCC[C@H](C(=O)O)C1 [Example 231, (1S,3S)-3-((6-(5-((5-(2-cyclopropylethyl)-1,2,4-oxadiazol-3-yl)methyl)-1-methyl-1H-1,2,3-triazol-4-yl)-2-methylpyridin-3-yl)oxy)cyclohexane-1-carboxylic acid] to Cc1nc(-c2nnn(C)c2CNc2noc(CCC3CC3)n2)ccc1O[C@H]1CCC[C@H](C(=O)O)C1 [Example 165], the IC50 falls from 15 nM to 6 nM (2.5-fold). The second is the more potent here.

First: CCCn1cnc(NCc2c(-c3ccc(O[C@H]4CCC[C@H](C(=O)O)C4)c(C)n3)nnn2C)n1 [Example 35]
Second: CCCn1cc(NCc2c(-c3ccc(O[C@H]4CCC[C@H](C(=O)O)C4)c(C)n3)nnn2C)nn1 [Example 11]
The IC50 of the first is 2.3-fold lower: 309 nM for the first, 705 nM for the second. The first is the more potent here.

First: Cc1nc(-c2nnn(C)c2CNc2nc(CCC(C)C)no2)ccc1O[C@H]1CCC[C@H](C(=O)O)C1 [Example 158]
Second: Cc1nc(-c2nnn(C)c2CNc2noc(CC(C)C)n2)ccc1O[C@H]1CCC[C@H](C(=O)O)C1 [Example 71]
The IC50 of the first is 1.6-fold lower: 21 nM for the first, 33 nM for the second.

Going from Cc1nc(-c2nnn(C)c2CNc2nc(C3CCC3)no2)ccc1O[C@H]1CCC[C@H](C(=O)O)C1 [Example 44, (1S,3S)-3-((6-(5-(((3-Cyclobutyl-1,2,4-oxadiazol-5-yl)amino)methyl)-1-methyl-1H-1,2,3-triazol-4-yl)-2-methylpyridin-3-yl)oxy)cyclohexane-1-carboxylic acid, 2 TFA salt] to Cc1nc(-c2nnn(C)c2CNc2noc(C3CCC3)n2)ccc1O[C@H]1CCC[C@H](C(=O)O)C1 [Example 175], the IC50 falls from 105 nM to 20 nM (5.2-fold). The second is the more potent here.

Cc1nc(-c2nnn(C)c2CNc2noc(COC3CC3)n2)ccc1O[C@H]1CCC[C@H](C(=O)O)C1 [Example 212, (1 S,3 S)-3-((6-(5-(((5-(cyclopropoxymethyl)-1,2,4-oxadiazol-3-yl)amino)methyl)-1-methyl-1H-1,2,3-triazol-4-yl)-2-methylpyridin-3-yl)oxy)cyclohexane-1-carboxylic acid] and Cc1nc(-c2nnn(C)c2CNc2noc(COC(C)C)n2)ccc1O[C@H]1CCC[C@H](C(=O)O)C1 [Example 145] are within 1.5-fold of each other in IC50: 34 nM for the first, 31 nM for the second.

Going from Cn1nnc(-c2ccc(O[C@H]3CCC[C@H](C(=O)O)C3)c(C#N)n2)c1Cn1cc(CC2CCCCC2)nn1 [Example 94] to Cc1nc(-c2nnn(C)c2Cn2cc(CC(C)C)nn2)ccc1O[C@H]1CCC[C@H](C(=O)O)C1 [Example 262, (1S,3S)-3-((6-(5-((4-isobutyl-1H-1,2,3-triazol-1-yl)methyl)-1-methyl-1H-1,2,3-triazol-4-yl)-2-methylpyridin-3-yl)oxy)cyclohexane-1-carboxylic acid], the IC50 rises from 54 nM to 86 nM (1.6-fold). The first is the more potent here.

Cc1nc(-c2nnn(C)c2COc2nc(C3CC3)ns2)ccc1O[C@H]1CCC[C@H](C(=O)O)C1 [Example 116, (1S,3S)-3-((6-(5-(((3-cyclopropyl-1,2,4-thiadiazol-5-yl)oxy)methyl)-1-methyl-1H-1,2,3-triazol-4-yl)-2-methylpyridin-3-yl)oxy)cyclohexane-1-carboxylic acid] and CCCc1nsc(OCc2c(-c3ccc(O[C@H]4CCC[C@H](C(=O)O)C4)c(C)n3)nnn2C)n1 [Example 127] are within 1.5-fold of each other in IC50: 405 nM for the first, 425 nM for the second.

Compared with Cc1nc(-c2nnn(C)c2CNc2nsc(C3CC3)n2)ccc1O[C@H]1CCC[C@H](C(=O)O)C1 [Example 1, (1 S,3 S)-3-((6-(5-(((5-Cyclopropyl-1,2,4-thiadiazol-3-yl)amino)methyl)-1-methyl-1H-1,2,3-triazol-4-yl)-2-methylpyridin-3-yl)oxy)cyclohexane-1-carboxylic acid], Cc1nc(-c2nnn(C)c2CNc2nc(C3CCCC3)ns2)ccc1O[C@H]1CCC[C@H](C(=O)O)C1 [Example 100] is 15-fold lower in IC50: 1180 nM for the first, 77 nM for the second. The second is the more potent here.

First: Cc1nc(-c2nnn(C)c2Cn2nnnc2COc2ccccc2)ccc1O[C@H]1CCC[C@H](C(=O)O)C1 [Example 304, (1S,3S)-3-{[2-methyl-6-(1-methyl-5-{[5-(phenoxymethyl)-1H-1,2,3,4-tetrazol-1-yl]methyl}-1H-1,2,3-triazol-4-yl)pyridin-3-yl]oxy}cyclohexane-1-carboxylic acid]
Second: Cc1nc(-c2nnn(C)c2Cn2cc(C(=O)c3ccccc3)nn2)ccc1O[C@H]1CCC[C@H](C(=O)O)C1 [Example 85]
The IC50 of the first is 1.9-fold lower: 124 nM for the first, 241 nM for the second.

Compared with Cc1nc(-c2nnn(C)c2Cn2nnc(OCC3CC(F)(F)C3)n2)ccc1O[C@H]1CCC[C@H](C(=O)O)C1 [Example 338], Cc1nc(-c2nnn(C)c2Cn2nnc(C3CCCC3)n2)ccc1O[C@H]1CCC[C@H](C(=O)O)C1 [Example 329, (1S,3S)-3-((6-(5-((5-cyclopentyl-2H-tetrazol-2-yl)methyl)-1-methyl-1H-1,2,3-triazol-4-yl)-2-methylpyridin-3-yl)oxy)cyclo-hexane-1-carboxylic acid] is 3.1-fold lower in IC50: 43 nM for the first, 14 nM for the second.

First: Cc1nc(-c2nnn(C)c2CNc2noc(C(C)C3CC3)n2)ccc1O[C@H]1CCC[C@H](C(=O)O)C1 (stereo partly drawn) [Example 185]
Second: CCOC(C)c1nc(NCc2c(-c3ccc(O[C@H]4CCC[C@H](C(=O)O)C4)c(C)n3)nnn2C)no1 (mixture of isomers) [Example 222, (1S,3S)-3-((6-(5-(((5-(1-ethoxyethyl)-1,2,4-oxadiazol-3-yl)amino)methyl)-1-methyl-1H-1,2,3-triazol-4-yl)-2-methylpyridin-3-yl)oxy)cyclohexane-1-carboxylic acid]
The IC50 of the first is 3.8-fold lower: 24 nM for the first, 92 nM for the second.

First: CC(C)Cc1nnnn1Cc1c(-c2ccc(O[C@H]3CCC[C@H](C(=O)O)C3)cn2)nnn1C [Example 255, (1S,3S)-3-((6-(5-((5-isobutyl-1H-tetrazol-1-yl)methyl)-1-methyl-1H-1,2,3-triazol-4-yl)pyridin-3-yl)oxy)cyclohexane-1-carboxylic acid]
Second: CCC(C)Cc1nc(NCc2c(-c3ccc(O[C@H]4CCC[C@H](C(=O)O)C4)cn3)nnn2C)no1 (mixture of isomers) [Example 290, (1S,3S)-3-((6-(1-methyl-5-(((5-(2-methylbutyl)-1,2,4-oxadiazol-3-yl)amino)methyl)-1H-1,2,3-triazol-4-yl)pyridin-3-yl)oxy)cyclohexane-1-carboxylic acid, racemate]
The IC50 of the first is 6.4-fold higher: 237 nM for the first, 37.3 nM for the second.

Compared with CCC(C)Cc1nc(NCc2c(-c3ccc(O[C@H]4CCC[C@H](C(=O)O)C4)c(C)n3)nnn2C)no1 (stereo partly drawn) [Example 170], Cc1nc(-c2nnn(C)c2CNc2noc(CCCCF)n2)ccc1O[C@H]1CCC[C@H](C(=O)O)C1 [Example 183] is 1.8-fold higher in IC50: 18 nM for the first, 32 nM for the second. The first is the more potent here.

Compared with Cc1nc(-c2nnn(C)c2CNc2nnc(C3CCC3)o2)ccc1O[C@H]1CCC[C@H](C(=O)O)C1 [Example 51], CCCc1nnc(NCc2c(-c3ccc(O[C@H]4CCC[C@H](C(=O)O)C4)c(C)n3)nnn2C)o1 [Example 52] is 6.7-fold higher in IC50: 59 nM for the first, 396 nM for the second. The first is the more potent here.

First: Cc1nc(-c2nnn(C)c2CNc2ncn(-c3ccc(F)cc3)n2)ccc1O[C@H]1CCC[C@H](C(=O)O)C1 [Example 39]
Second: C=C1CC(c2nc(NCc3c(-c4ccc(O[C@H]5CCC[C@H](C(=O)O)C5)c(C)n4)nnn3C)no2)C1 [Example 203]
The IC50 of the first is 5.3-fold higher: 61 nM for the first, 11.5 nM for the second.

Going from Cc1nc(-c2nnn(C)c2COc2noc(CC3CC3)n2)ccc1O[C@H]1CCC[C@H](C(=O)O)C1 [Example 117, (1S,3S)-3-((6-(5-(((5-(cyclopropylmethyl)-1,2,4-oxadiazol-3-yl)oxy)methyl)-1-methyl-1H-1,2,3-triazol-4-yl)-2-methylpyridin-3-yl)oxy)cyclohexane-1-carboxylic acid] to Cc1nc(-c2nnn(C)c2CNc2nc(CC3CC3)no2)ccc1O[C@H]1CCC[C@H](C(=O)O)C1 [Example 64], the IC50 rises from 11 nM to 105 nM (9.5-fold). The first is the more potent here.

First: Cc1nc(-c2nnn(C)c2CNc2cnn(CC3CCC3)n2)ccc1O[C@H]1CCC[C@H](C(=O)O)C1 [Example 24, (1 S,3 S)-3-((6-(5-(((2-(cyclobutylmethyl)-2H-1,2,3-triazol-4-yl)amino)methyl)-1-methyl-1H-1,2,3-triazol-4-yl)-2-methylpyridin-3-yl)oxy)cyclohexane-1-carboxylic acid]
Second: Cc1nc(-c2nnn(C)c2Cn2nnc(N3CCCC3)n2)ccc1O[C@H]1CCC[C@H](C(=O)O)C1 [Example 312, (1S,3S)-3-{[2-methyl-6-(1-methyl-5-{[5-(pyrrolidin-1-yl)-2H-1,2,3,4-tetrazol-2-yl]methyl}-1H-1,2,3-triazol-4-yl)pyridin-3-yl]oxy}cyclohexane-1-carboxylic acid]
The IC50 of the first is 7.1-fold lower: 33 nM for the first, 234 nM for the second.

same assay, conditions: read-out: hLPA1 IC50

Compared with CCc1nc(-c2nnn(C)c2CNc2nc(C(C)(C)C)ns2)ccc1O[C@H]1CCC[C@H](C(=O)O)C1 [Example 394, (1S,3S)-3-((6-(5-(((3-(tert-butyl)-1,2,4-thiadiazol-5-yl)amino)methyl)-1-methyl-1H-1,2,3-triazol-4-yl)-2-ethylpyridin-3-yl)oxy)cyclohexane-1-carboxylic acid], CCCCn1nnc(NCc2c(-c3ccc(O[C@H]4CCC[C@H](C(=O)O)C4)c(C)n3)nnn2C)n1 [Example 382, (1S,3S)-3-((6-(5-(((2-butyl-2H-tetrazol-5-yl)amino)methyl)-1-methyl-1H-1,2,3-triazol-4-yl)-2-methylpyridin-3-yl)oxy)cyclo-hexane-1-carboxylic acid] is 7.9-fold higher in IC50: 66 nM for the first, 521 nM for the second. The first is the more potent here.

Cc1nc(-c2nnn(C)c2Cn2nnc(N(CC3CC3)CC3CC3)n2)ccc1O[C@H]1CCC[C@H](C(=O)O)C1 [Example 358, (1S,3S)-3-((6-(5-((5-(bis(cyclo-propylmethyl)amino)-2H-tetrazol-2-yl)methyl)-1-methyl-1H-1,2,3-triazol-4-yl)-2-methylpyridin-3-yl)oxy)cyclohexane-1-carboxylic acid] was tested, and the IC50 was 949 nM.
